Laboratory results reported in patent publication US7452688B2, “Transformed cell with enhanced sensitivity to antifungal compound and use thereof” (Sumitomo Chemical Company, Limited, priority 2002, dated 2008).

Columns and labels:
Format in all cases: cell-based, Saccharomyces cerevisiae
[1] = test system: transformed budding yeast AH22-RsOS1; test: Antifungal compound sensitivity test, transformed budding yeast AH22-RsOS1 (Example 19); settings: 30° C. 29.8 hours, relative value in percentage
Protocol: The transformed budding yeast AH22-RsOS1 prepared in Example 18 was cultured while shaking at 30° C. for 18 hours in a Glu-Leu medium. As a control, the AH22 strain was similarly cultured while shaking at 30° C. for 18 hours in a Glu medium. The absorbance at 600 nm of each grown transformed budding yeast in a cell suspension was measured, and cell suspension diluted with sterilized distilled water to the absorbance of 0.1 was prepared. Further, a cell suspension in which the aforementioned cell suspension of the transformed budding yeast AH22-RsOS1 was diluted 50-fold with a Glu-Leu medium, and a cell suspension in which the aforementioned cell suspension of the AH22 strain was diluted 50-fold with a Glu medium were prepared.
A solution in which each of Compounds (1) to (5) was dissolved in dimethylsulfoxide (DMSO) to the concentration of 600 ppm, and a solution in which Compounds (6) and (7) was dissolved in dimethylsulfoxide (DMSO) to the concentration of 60 ppm were prepared, and two microplates were prepared in which each 1.0 μL per well of the Compound solution and DMSO as a control were dispensed. In one microplate among them, each 100 μL of cell suspensions of the transformed budding yeast AH22-RsOS1 which had been prepared by dilution as described above was dispensed, and cultured by allowing to stand at 30° C. for 29.8 hours. In another microplate, each 100 μL of cell suspensions of the control yeast AH22 strain which had been prepared by dilution as described above was dispensed, and cultured by allowing to stand at 30° C. for 24.8 hours. After culturing, the absorbance at 600 nm of each well was measured with a microplate reader.
A degree of growth of the transformed budding yeast is expressed as a relative value in percentage, letting the absorbance at 600 nm at the concentration of the Compound of 0 ppm to be 100. It was confirmed that an inhibiting degree of growth of the transformed budding yeast TM182-RsOS1 by each test substance was grater than an inhibiting degree of growth of the transformed budding yeast AH22-RsOS1 by each test substance, and the transformed budding yeast TM182-RsOS1 was a transformed cell with the enhanced sensitivity to an antifungal compound as compared with the transformed budding yeast AH22-RsOS1.

[2] = test system: transformed budding yeast AH22-BcOS1-I365S; test: Antifungal compound sensitivity test, transformed budding yeast AH22-BcOS1-I365S (Example 6); settings: absorbance at 600 nm relative to 0 ppm = 100
Description: Degrees of growths of both of the transformed budding yeasts cultured under the presence of Compounds (1) to (7) and budding yeast as a control therefor are shown in Table 2. Degrees of growths of both of the transformed budding yeasts and budding yeast as a control are expressed by a relative value in percentage, letting the absorbance at 600 nm at the concentration of the Compound of 0 ppm to be 100. It was confirmed that an inhibiting degree of growth of the transformed budding yeast TM182-BcOS1-I 365S by each test substance was grater than an inhibiting degree of growth of the transformed budding yeast AH22-BcOS1-I 365S by each test substance, and the transformed budding yeast TM182-BcOS1-I365S was a transformed cell with the enhanced sensitivity to an antifungal compound as compared with the transformed budding yeast AH22-BcOS1-I365S.

[3] = test system: transformed budding yeast AH22-BcOS1; test: Antifungal compound sensitivity test, transformed budding yeast AH22-BcOS1 (Example 3); settings: 30° C. 48 hours, absorbance at 600 nm relative to 0 ppm = 100
Protocol: The transformed budding yeast AH22-BcOS1 prepared in Example 2 was cultured while shaking at 30° C. for 18 hours in a Glu-Leu medium. As a control, the AH22 strain was similarly cultured while shaking at 30° C. for 18 hours in a Glu medium. The absorbance at 600 nm of each of the grown transformed budding yeasts in a cell suspension was measured, and a cell suspension diluted with sterilized distilled water to the absorbance of 0.1 was prepared. Further, a cell suspension in which the aforementioned cell suspension of the transformed budding yeast AH22-BcOS1 was diluted 200-fold with a Glu-Leu medium, and a cell suspension in which the aforementioned cell suspension of the AH22 strain was diluted 200-fold with a Glu medium were prepared. A solution in which each of Compounds (1) to (3) was dissolved in dimethylsulfoxide (DMSO) to the concentration of 60 ppm, a solution in which each of Compounds (4) and (5) was dissolved in dimethylsulfoxide (DMSO) to the concentration of 2000 ppm, and a solution in which each of Compounds (6) and (7) was dissolved in dimethylsulfoxide (DMSO) to the concentration of 20 ppm were prepared, and two microplates were prepared in which each 2.0 μL per well of the Compound solution and DMSO as a control were dispensed into two wells. In one microplate among them, each 200 μL of cell suspensions of the transformed budding yeast AH22-BcOS1 which had been prepared by dilution as described above was dispensed, and cultured by allowing to stand at 30° C. for 48 hours. In another microplate, each 200 μL of the cell suspensions of the control yeast AH22 strain which had been prepared by dilution as described above was dispensed, and cultured by allowing to stand at 30° C. for 48 hours. After culturing, the absorbance at 600 nm of each well was measured with a microplate reader.
Degree of growths of both of the transformed budding yeasts cultured under the presence of each of Compound (1) to (7) and budding yeast as a control therefor are shown in Table 1. Degree of growths of both of the transformed budding yeasts and budding yeasts as a control therefor are expressed by a relative value in percentage, letting the absorbance at 600 nm in a well having the concentration of the aforementioned Compound of 0 ppm to be 100. It was confirmed that an inhibiting degree of growth of TM182-BcOS1 by each test substance was grater than an inhibiting degree of growth of AH22-BcOS1 by each test substance, and the TM182-BcOS1 was a transformed cell with the enhanced sensitivity to an antifungal compound as compared with AH22-BcOS1.

CC12CC1(C)C(=O)N(c1cc(Cl)cc(Cl)c1)C2=O (stereo not drawn) [Compound (1), Procymidone]
Degree of growth of budding yeast AH22-RsOS1 Glu-Leu medium ([1]; final concentration 6.0 ppm): 103%
Degree of growth of budding yeast (%) AH22-BcOS1-I365S Glu-Leu medium ([2]; final concentration 6 ppm): 68%
Degree of growth of budding yeast (%) AH22-BcOS1 Glu-Leu medium ([3]; final concentration 0.6 ppm): 90%

CC(C)NC(=O)N1CC(=O)N(c2cc(Cl)cc(Cl)c2)C1=O [Compound (2), Iprodione]
Degree of growth of budding yeast AH22-RsOS1 Glu-Leu medium ([1]; final concentration 6.0 ppm): 101%
Degree of growth of budding yeast (%) AH22-BcOS1-I365S Glu-Leu medium ([2]; final concentration 6 ppm): 81%
Degree of growth of budding yeast (%) AH22-BcOS1 Glu-Leu medium ([3]; final concentration 0.6 ppm): 92%

C=CC1(C)OC(=O)N(c2cc(Cl)cc(Cl)c2)C1=O (stereo not drawn) [Compound (3), Vinclozolin]
Degree of growth of budding yeast AH22-RsOS1 Glu-Leu medium ([1]; final concentration 6.0 ppm): 101%
Degree of growth of budding yeast (%) AH22-BcOS1-I365S Glu-Leu medium ([2]; final concentration 6 ppm): 75%
Degree of growth of budding yeast (%) AH22-BcOS1 Glu-Leu medium ([3]; final concentration 0.6 ppm): 93%

O=[N+]([O-])c1c(Cl)c(Cl)c(Cl)c(Cl)c1Cl [Compound (4), Quintozene]
Degree of growth of budding yeast AH22-RsOS1 Glu-Leu medium ([1]; final concentration 6.0 ppm): 89%
Degree of growth of budding yeast (%) AH22-BcOS1-I365S Glu-Leu medium ([2]; final concentration 20 ppm): 83%
Degree of growth of budding yeast (%) AH22-BcOS1 Glu-Leu medium ([3]; final concentration 20 ppm): 45%

COP(=S)(OC)Oc1c(Cl)cc(C)cc1Cl [Compound (5), Tolclofos-methyl]
Degree of growth of budding yeast AH22-RsOS1 Glu-Leu medium ([1]; final concentration 6.0 ppm): 85%
Degree of growth of budding yeast (%) AH22-BcOS1-I365S Glu-Leu medium ([2]; final concentration 20 ppm): 64%
Degree of growth of budding yeast (%) AH22-BcOS1 Glu-Leu medium ([3]; final concentration 20 ppm): 79%

N#Cc1c[nH]cc1-c1cccc2c1OC(F)(F)O2 [Compound (6), Fludioxonil]
Degree of growth of budding yeast AH22-RsOS1 Glu-Leu medium ([1]; final concentration 0.6 ppm): 79%
Degree of growth of budding yeast (%) AH22-BcOS1-I365S Glu-Leu medium ([2]; final concentration 0.2 ppm): 67%
Degree of growth of budding yeast (%) AH22-BcOS1 Glu-Leu medium ([3]; final concentration 0.2 ppm): 81%

N#Cc1c[nH]cc1-c1cccc(Cl)c1Cl [Compound (7), Fenpiclonil]
Degree of growth of budding yeast AH22-RsOS1 Glu-Leu medium ([1]; final concentration 0.6 ppm): 101%
Degree of growth of budding yeast (%) AH22-BcOS1-I365S Glu-Leu medium ([2]; final concentration 0.2 ppm): 79%
Degree of growth of budding yeast (%) AH22-BcOS1 Glu-Leu medium ([3]; final concentration 0.2 ppm): 94%
